PubChem BioAssay AID762 (NMMLSC, 2007)
pIC50: −log10 of the molar value.

Each molecule was assayed against fMet-Leu-Phe receptor (Homo sapiens) (UniProt P21462) (assay: FPR1 fluorescent ligand binding inhibitors, dose response, selectivity assay for FPRL1 ligand SAR project, cell-based, flow cytometry, IC50 (AID 762)). Conditions: FPR-expressing cells, fluorescent ligand binding competition, IC50 of ligand binding inhibition.
Sequence of fMet-Leu-Phe receptor (Homo sapiens) (P21462 whole entry, looked up): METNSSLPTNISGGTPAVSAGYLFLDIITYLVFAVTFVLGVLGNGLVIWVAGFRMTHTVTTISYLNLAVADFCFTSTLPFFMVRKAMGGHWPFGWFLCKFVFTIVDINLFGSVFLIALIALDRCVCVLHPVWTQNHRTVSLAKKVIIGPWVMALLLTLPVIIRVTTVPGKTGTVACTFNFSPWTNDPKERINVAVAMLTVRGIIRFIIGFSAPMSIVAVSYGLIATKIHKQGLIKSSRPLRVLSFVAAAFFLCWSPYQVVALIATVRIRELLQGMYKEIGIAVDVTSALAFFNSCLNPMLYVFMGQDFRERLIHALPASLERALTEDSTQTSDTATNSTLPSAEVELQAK

Structure (SMILES) | pIC50
COc1ccc(-c2cc(C(F)(F)F)nc(N3CCN(Cc4ccccc4)CC3)n2)cc1OC | < 4.31
COc1ccc(-c2cn3cccnc3n2)cc1NC(=O)C1CC1 | < 4.14
COc1ccc(-c2cc(C(F)(F)F)nc(N3CCN(c4ccccc4)CC3)n2)cc1OC | < 4.30
COc1ccc(-c2cn3cccnc3n2)cc1NC(=O)C(C)C | < 4.15

Second part, the molecule after the results:

pIC50 | Structure (SMILES)
< 4.30 | CCOC(=O)N1CCN(c2nc(-c3ccc(OC)c(OC)c3)cc(C(F)(F)F)n2)CC1
< 4.24 | O=C(N1CCN(c2nc(-c3ccccc3)c3ccccc3n2)CC1)C(F)(F)F
< 4.24 | COc1ccc(CC(=O)Nc2cc(-c3cn4cccnc4n3)ccc2OC)cc1
< 4.38 | COc1ccc(-c2cc(C(F)(F)F)nc(N3CCN(C(c4ccccc4)c4ccccc4)CC3)n2)cc1OC
< 4.12 | CCC(=O)Nc1cc(-c2cn3cccnc3n2)ccc1OC
< 4.18 | COc1ccc(-c2cn3cccnc3n2)cc1NC(=O)C1CCCC1
